Earlier results as cited in US8124123B2, “Controlled release azithromycin solid dosages forms” (Dow Pharmaceutical Sciences, Inc., priority 2007, dated 2012).

How the values were obtained:
[1] = oral administration; reported with single 1000 mg dose and 1500 mg over 5 days

CC[C@H]1OC(=O)[C@H](C)[C@@H](O[C@H]2C[C@@](C)(OC)[C@@H](O)[C@H](C)O2)[C@H](C)[C@@H](O[C@@H]2O[C@H](C)C[C@H](N(C)C)[C@H]2O)[C@](C)(O)C[C@@H](C)CN(C)[C@H](C)[C@@H](O)[C@]1(C)O [azithromycin, 9-deoxo-9a-aza-9a-methyl-9a-homoerythromycin A]
gastrointestinal side effects [1]: dose-related incidence of gastrointestinal side effects | fraction of azithromycin released into the stomach that may be destroyed (about one hour in the stomach, low pH environment): approximately one third | chemical stability at pH 1 (pH found in stomach contents following a meal): chemically unstable
